Measurements from patent publication US20260041670A1, “DRUGS FOR PREVENTING AND/OR TREATING ALZHEIMER'S DISEASE” (SHENZHEN UNIVERSITY OF ADVANCED TECHNOLOGY, priority 2023, published 2026).
≈ marks a conversion by molar mass, not a printed value. Read-outs that look alike come from different tables or passages of the source.

Key:
[1] = Stability in microsomes (mouse); assay type: in vitro ADME; conditions: liver microsomes
[2] = Stability in microsomes (human); assay type: in vitro ADME; conditions: liver microsomes
p-TrkB Y816 = assay: Immunofluorescent staining of p-TrkB in brain sections; assay type: in vivo; conditions: 3×Tg mice, IF staining
Description: FIG. 11a illustrates immunofluorescent (IF) staining of p-TrkB and microtubule-associated protein 2 (MAP2) in brain tissues of 3×Tg mice, with a scale bar=50 μm.
FIG. 11e illustrates quantification of p-TrkB intensities in the hippocampus (n=6, one-way ANOVA) (data are represented by mean±SD; ns represents no statistically significant difference, *p<0.05, **p<0.01, ***p<0.001).
To further analyze the therapeutic effects of #2-NP against AD pathology, immunofluorescent (IF) staining of p-TrkB was performed on brain sections from drug-treated 3×Tg mice. […] Consequently, p-AEP IF signals were closely correlated with the upstream p-TrkB activity (FIGS. 11b & f). Simultaneously, active AEP IF staining was inversely coupled with the p-AEP activity, thereby leading to a progressive decline in APP C585 levels. Consistent with these findings, Tau N368 signals and AT8 IF intensity were closely correlated with each other (FIGS. 7C & D). Quantitative analysis of the fluorescence intensity confirmed these observations (FIGS. 11g-j).

[3] = Plasma protein binding (human); assay type: in vitro ADME; conditions: plasma, read-out: Plasma Protein Binding Fu, plasma
Aβ42 = assay: ELISA of Aβ42 in brain tissues; assay type: in vivo; conditions: 3×Tg mice, gavage 3 months
Protocol: FIG. 9i illustrates quantitative analysis of Aβ42 in brain tissues by an enzyme-linked immunosorbent assay (ELISA) (n=3, one-way ANOVA) (data are represented by mean±SD; […], ***p<0.005, ****p≤0.0001).
(§1) To investigate whether long-term chronic treatment with #2-NP alleviates cognitive deficits in 3×Tg AD model mice, mice were administered via gavage with #2 at 3 mg/kg, #2-NP at 3 mg/kg, and #2-NP at 10 mg/kg. […] The recognition index was increased by #2-NP in a dose-dependent manner (FIGS. 9a and b). […] Additionally, quantitative analysis of Aβ PET signals was performed using the specific ligand [18F] […] Collectively, #2-NP decreases cerebral Aβ deposition, reduces brain atrophy, and ameliorates cognitive deficits in 3×Tg mice.

Permeability Caco-2 = assay type: in vitro ADME; conditions: human, Caco-2
Aβ = assay: IHC staining of Aβ in brain sections; assay type: in vivo; conditions: 3×Tg mice, gavage 3 months
Protocol: FIG. 9e illustrates immunohistochemical (IHC) staining of Aβ in brain sections of 3×Tg mice, with a scale bar=50 μm.
FIG. 9f illustrates a quantitative diagram of FIG. 9e (n=6, one-way ANOVA).
as §1

[4] = ICR, mouse, in vivo
Protocol: (§2) FIG. 6b illustrates plasma concentrations following administration of #2 or #2-NP. ICR mice are divided into four groups, which are administered with #2 at 2 mg/kg (intravenous injection, IV), #2 at 5 mg/kg (oral administration, PO), #2-NP at 5 mg/kg (PO), and #2-NP at 10 mg/kg (PO). Blood samples are collected from all three mice of each group at corresponding time points, and concentrations of #2 are quantitatively analyzed by a liquid chromatography-tandem mass spectrometry (LC-MS/MS). Cmax: maximum plasma concentration; Tmax: time to maximum concentration; T½: terminal elimination half-life; AUC: area under curves; MRT: mean residence time; CL: clearance; and F: relative oral bioavailability.
(§3) FIG. 13a illustrates plasma concentrations and PK parameters of #2 quantitatively analyzed by LC-MS/MS after IG administration of #2, #2-NP, and #2-LIP at 5 mg/kg, as well as IN administration of #2 and #2-LIP at 5 mg/kg (n=3; data are represented by mean±SD).
(§4) FIG. 13b illustrates brain concentrations and PK parameters of #2 quantitatively analyzed by LC-MS/MS after IG administration of #2, #2-NP, and #2-LIP at 5 mg/kg, as well as IN administration of #2 and #2-LIP at 5 mg/kg (n=3; data are represented by mean±SD).
(§5) To investigate the in vivo PK profile of #2-NP, lyophilized #2-NP powder was redissolved. […] For quantitative comparison of the effects of the nanoparticle system in delivering #2 to the blood circulation system and brain tissues, PK studies were performed in 2-month-old ICR mice.

3×Tg mice [5] = assay: Novel object recognition (NOR) test after 3 months treatment; assay type: in vivo; conditions: gavage 3 months, #2 3 mg/kg, #2-NP 3 and 10 mg/kg
Protocol: FIG. 9a illustrates representative movement trajectories in a novel object recognition (NOR) test for 3×Tg mice from a Vehicle group, a #2 3 mg/kg group, a #2-NP 3 mg/kg group, and a #2-NP 10 mg/kg group.
FIG. 9b illustrates statistical analysis of recognition indexes of different groups (n=6, one-way ANOVA).
as §1

3×Tg mice [6] = assay: MRI cerebral cortex volume; assay type: in vivo; conditions: gavage 3 months
Protocol: FIG. 9c illustrates representative T2-weighted magnetic resonance imaging (MRI) scanning images of 3×Tg mice, with cortical regions of interest (ROI) marked by red lines.
FIG. 9d illustrates a quantified cerebral cortex volume of ROI (n=3, one-way ANOVA).
as §1

[7] = Stability in hepatocytes (mouse); assay type: in vitro ADME; conditions: hepatocytes
hERG = hERG (Homo sapiens, UniProt Q12809); assay: hERG inhibition
Sequence of hERG (Q12809 whole entry): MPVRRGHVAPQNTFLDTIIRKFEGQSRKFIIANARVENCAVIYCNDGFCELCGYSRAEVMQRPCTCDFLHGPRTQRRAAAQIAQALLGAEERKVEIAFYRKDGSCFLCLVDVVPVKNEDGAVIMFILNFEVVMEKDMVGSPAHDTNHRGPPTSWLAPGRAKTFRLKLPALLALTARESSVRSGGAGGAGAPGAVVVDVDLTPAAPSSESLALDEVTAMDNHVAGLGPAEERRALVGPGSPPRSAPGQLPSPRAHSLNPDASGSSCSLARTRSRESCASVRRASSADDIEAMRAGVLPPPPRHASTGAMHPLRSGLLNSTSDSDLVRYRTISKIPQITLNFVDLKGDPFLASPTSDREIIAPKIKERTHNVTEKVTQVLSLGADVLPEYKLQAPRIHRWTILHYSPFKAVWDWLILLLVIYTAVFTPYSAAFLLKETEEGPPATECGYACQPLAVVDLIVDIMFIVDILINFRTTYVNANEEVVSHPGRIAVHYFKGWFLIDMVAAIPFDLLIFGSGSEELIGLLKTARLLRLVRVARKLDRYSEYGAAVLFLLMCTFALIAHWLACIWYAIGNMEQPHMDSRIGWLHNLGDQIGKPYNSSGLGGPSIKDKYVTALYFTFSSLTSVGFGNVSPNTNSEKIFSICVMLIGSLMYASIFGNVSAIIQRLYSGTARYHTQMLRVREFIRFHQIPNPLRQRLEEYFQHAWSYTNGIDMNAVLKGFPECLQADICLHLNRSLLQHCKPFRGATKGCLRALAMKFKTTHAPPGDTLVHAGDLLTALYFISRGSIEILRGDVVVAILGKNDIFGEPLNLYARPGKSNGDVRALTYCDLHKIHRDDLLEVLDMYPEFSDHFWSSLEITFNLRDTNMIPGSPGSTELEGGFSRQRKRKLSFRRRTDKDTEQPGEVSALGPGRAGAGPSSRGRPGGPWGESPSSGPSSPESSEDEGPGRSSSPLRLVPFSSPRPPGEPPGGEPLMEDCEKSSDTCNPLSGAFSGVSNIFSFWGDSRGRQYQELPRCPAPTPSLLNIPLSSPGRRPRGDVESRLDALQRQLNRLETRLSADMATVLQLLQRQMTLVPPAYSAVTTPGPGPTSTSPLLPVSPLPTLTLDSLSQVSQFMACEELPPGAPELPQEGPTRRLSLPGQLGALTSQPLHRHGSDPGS

in vivo = conditions: ICR, mouse
Protocol: as §2, §3, §4, §5

Permeability PAMPA-BBB = assay type: in vitro ADME; conditions: PAMPA; read-out: Permeability-PAMPA-BBB Pe
[8] = Stability in plasma (mouse); assay type: in vitro ADME; conditions: plasma, read-out: Stability-Plasma T1/2
[9] = Plasma protein binding (mouse); assay type: in vitro ADME; conditions: plasma, read-out: Plasma Protein Binding Fu, plasma
Solubility (pH 7.4; PBS) = assay type: physicochemical; conditions: aqueous buffer
[10] = Stability in hepatocytes (human); assay type: in vitro ADME; conditions: hepatocytes
[11] = Stability in plasma (human); assay type: in vitro ADME; conditions: plasma, read-out: Stability-Plasma T1/2
[12] = read-out: Stability-Microsomes CL
[13] = read-out: Stability-Microsomes T1/2
[14] = read-out: Stability-Hepatocytes CL
[15] = read-out: Stability-Hepatocytes T1/2

SMILES: CNCc1ccc(-c2cc(=O)c3ccc4nc(C(F)(F)F)[nH]c4c3o2)cc1 [#2]
- microsomal CLint [1, 12]: 10.5 µL/min/mg
- half-life [1, 13]: 2.22 h
- microsomal CLint [2, 12]: 2.32 µL/min/mg
- half-life [2, 13]: 9.97 h
- p-TrkB Y816 in the hippocampus (p-TrkB Y816): significant activation
- fraction unbound [3]: 0.046
- Aβ42 content (Aβ42): significantly decreased
- efflux ratio (Permeability Caco-2): 193
- Papp A→B (Permeability Caco-2; a-b): 0.0175 ×10⁻⁶ cm/s
- Papp B→A (Permeability Caco-2; b-a): 13.9 ×10⁻⁶ cm/s
- Aβ aggregation in the hippocampus (Aβ): significantly reduced
- brain AUC ([4]; 5 mg/kg): 78.34 ng·h/mL
- plasma Cmax, IN versus PO administration ([4]; 5 mg/kg): approximately 10 fold
- clearance (CL) ([4]; inhaled or intranasal, 5 mg/kg): 43.95 mL/min/kg
- brain maximum concentration ([4]; iv): 18.47 ng/g
- brain AUC ([4]; iv, 2 mg/kg): 84.26 ng·h/mL
- brain Cmax ([4]; iv, 2 mg/kg): 164.38 ng/g
- brain maximum concentration ([4]; po): 27.663 ng/g
- brain AUC ([4]; po, 5 mg/kg): 35.75 ng·h/mL
- brain Cmax ([4]; po, 5 mg/kg): 18.47 ng/g
- clearance ([4]; po, 5 mg/kg): 223 mL/min/kg
- cognitive function in NOR test (recognition index) (3×Tg mice [5]): failed to improve
- cerebral cortex volume compared to the Vehicle group (3×Tg mice [6]): elevation trend without statistical significance
- hepatocyte CLint [7, 14]: < 3 µL/min/1e6 cells
- half-life [7, 15]: > 8 h
- IC50 (hERG): > 10 µM
- Kp (in vivo): ~0.1
- Cmax (in vivo; 5 mg/kg, maximum plasma concentration (Cmax)): 947 ng/mL
- AUC (in vivo; inhaled or intranasal, 5 mg/kg): 1900 ng·h/mL
- MRT (in vivo; inhaled or intranasal, 5 mg/kg): 2.11 h
- bioavailability (in vivo; inhaled or intranasal, 5 mg/kg): 34.3%
- half-life (in vivo; inhaled or intranasal, 5 mg/kg, elimination half-life): 1.54 h
- Cmax (in vivo; inhaled or intranasal, 5 mg/kg, maximum plasma concentration (Cmax)): 947 ng/mL
- AUC (in vivo; iv, 2 mg/kg): 2320 ng·h/mL
- half-life (in vivo; iv, 2 mg/kg, brain t1/2): 1.41 h
- half-life (in vivo; iv, 2 mg/kg, plasma half-life (t½)): 0.84 h
- half-life (in vivo; iv, half-life in the brain): 3.49 h
- AUC (in vivo; po, 5 mg/kg): 405 ng·h/mL
- Cmax (in vivo; po, 5 mg/kg, Cmax): 90.8 ng/mL
- half-life (in vivo; po, 5 mg/kg, brain t1/2): 3.49 h
- half-life (in vivo; po, 5 mg/kg, half-life in the brain): 2.39 h
- Cmax (in vivo; po, 5 mg/kg, maximum plasma concentration (Cmax)): 90.8 ng/mL
- half-life (in vivo; po, 5 mg/kg, plasma half-life (t½)): ~4.09 h
- half-life (in vivo; t1/2): 4.09 ± 2.65 h
- Papp (Permeability PAMPA-BBB): 0.135 ×10⁻⁶ cm/s
- half-life [8]: > 8 h
- fraction unbound [9]: 0.012
- solubility (Solubility (pH 7.4; PBS)): 50 µM (≈ 18.7 µg/mL)
- hepatocyte CLint [10, 14]: < 3 µL/min/1e6 cells
- half-life [10, 15]: > 8 h
- half-life [11]: > 8 h
